Measurements as given in US9573957B2 (Boehringer Ingelheim International GmbH, priority 2013, dated 2017).

How the values were obtained:
[1] = molecular target: human LTA4 hydrolase (Homo sapiens (Human), UniProt P09960); assay: LTA4H Enzyme assay (peptidase, Arg-AMC cleavage); assay type: biochemical; settings: LTA4H Enzyme 1 nM, Arg-AMC substrate 50 μM, room temperature 1 h, fluorescence
In short: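 Aminomethylcoumarin release measured fluorimetrically (380/460 nm) after 1 h at room temperature. Reaction: 1 nM final enzyme, 50 μM final Arg-AMC and compound in Tris-HCl pH 7.5 with 100 mM KCl and 0.5% BSA.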

[2] = test system: synthesis of LTB4 in human whole blood; assay: LTB4 production inhibition assay in human whole blood (HWB); assay type: cell-based; settings: heparinized human whole blood, 15 min at 37° C., Calcimycin 20 μM 30 min, plasma LTB4 by HTRF
In short: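 LTB4 in plasma read by HTRF immunoassay after centrifugation. Before that, compound sat with heparinized human whole blood 15 min at 37° C, followed by 30 min at 37° C with 20 μM (final) calcimycin.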

Sequence of human LTA4 hydrolase (P09960 whole entry): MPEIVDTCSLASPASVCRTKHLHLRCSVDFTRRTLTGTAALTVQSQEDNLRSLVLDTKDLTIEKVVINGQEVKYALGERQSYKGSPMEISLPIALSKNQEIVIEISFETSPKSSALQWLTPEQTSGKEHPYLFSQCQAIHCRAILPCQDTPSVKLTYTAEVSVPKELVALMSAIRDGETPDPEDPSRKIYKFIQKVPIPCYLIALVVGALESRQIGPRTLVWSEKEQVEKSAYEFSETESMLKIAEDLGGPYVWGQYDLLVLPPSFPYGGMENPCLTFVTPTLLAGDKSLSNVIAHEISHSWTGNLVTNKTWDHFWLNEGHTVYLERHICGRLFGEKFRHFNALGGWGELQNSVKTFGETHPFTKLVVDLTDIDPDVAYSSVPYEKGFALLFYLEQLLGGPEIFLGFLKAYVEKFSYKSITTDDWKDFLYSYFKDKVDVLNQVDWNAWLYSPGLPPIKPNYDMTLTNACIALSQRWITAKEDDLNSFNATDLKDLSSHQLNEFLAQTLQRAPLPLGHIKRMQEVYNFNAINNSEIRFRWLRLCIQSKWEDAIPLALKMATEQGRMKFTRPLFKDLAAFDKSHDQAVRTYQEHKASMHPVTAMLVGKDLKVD

Compound	IC50 [1] [nM]	IC50 [2] [nM]
CO[C@@H](C)C(=O)N1CCN(Cc2ccc3cc(Oc4ccc(-c5ccn[nH]5)cn4)ccc3n2)CC1 [Example 118, (S)-2-Methoxy-1-(4-{6-[5-(2H-pyrazol-3-yl)-pyridin-2-yloxy]-quinolin-2-ylmethyl}-piperazin-1-yl)-propan-1-one]	0.67	170
CN(C(=O)CO)[C@@H]1CCN(Cc2ccc3cc(Oc4ccc(-c5ccn[nH]5)cn4)ccc3n2)C1 [Example 98]	0.72	120
O=C1CCCN1C1CCN(CCc2coc3cc(Oc4ccc(-c5ccn[nH]5)cn4)ccc23)CC1 [Example 72, 1-[1-(2-{6-[5-(2H-Pyrazol-3-yl)-pyridin-2-yloxy]-benzofuran-3-yl}-ethyl)-piperidin-4-yl]-pyrrolidin-2-one]	0.47	160
CN(C)C(=O)C1CCN(Cc2ccc3cc(Oc4ncc(-c5ccn[nH]5)cn4)ccc3c2)CC1 [Example 38, 1-{6-[5-(2H-Pyrazol-3-yl)-pyrimidin-2-yloxy]-naphthalen-2-ylmethyl}-piperidine-4-carboxylic acid dimethylamide]	1.2	180
CC(=O)N1CCC(NCc2coc3cc(Oc4ccc(-c5ccn[nH]5)cn4)ccc23)CC1 [Example 108, 1-[4-({6-[5-(2H-Pyrazol-3-yl)-pyridin-2-yloxy]-benzofuran-3-ylmethyl}-amino)-piperidin-1-yl]-ethanone]	0.71	180
O=C(N1CCN(Cc2ccc3cc(Oc4ccc(-c5ccn[nH]5)cn4)ccc3n2)CC1)C1(O)CC1 [Example 126, (1-Hydroxy-cyclopropyl)-(4-{6-[5-(2H-pyrazol-3-yl)-pyridin-2-yloxy]-quinolin-2-ylmethyl}-piperazin-1-yl)-methanone]	1	250
COCCCC(=O)N1CCN(Cc2ccc3cc(Oc4ccc(-c5ccn[nH]5)cn4)ccc3n2)CC1 [Example 142, 4-Methoxy-1-(4-{6-[5-(2H-pyrazol-3-yl)-pyridin-2-yloxy]-quinolin-2-ylmethyl}-piperazin-1-yl)-butan-1-one]	2.5	930
CNC(=O)C1CCN(Cc2coc3cc(Oc4ccc(-c5ccn[nH]5)cn4)ccc23)CC1 [Example 103, 1-{6-[5-(2H-Pyrazol-3-yl)-pyridin-2-yloxy]-benzofuran-3-ylmethyl}-piperidine-4-carboxylic acid methylamide]	0.49	170
N#CC1(C(=O)N2CCN(Cc3ccc4cc(Oc5ccc(-c6ccn[nH]6)cn5)ccc4n3)CC2)CCOCC1 [Example 148, 4-(4-{6-[5-(2H-Pyrazol-3-yl)-pyridin-2-yloxy]-quinolin-2-ylmethyl}-piperazine-1-carbonyl)-tetrahydro-pyran-4-carbonitrile]	7.9	1100
O=C(CO)N1CCN(Cc2ccc3cc(Oc4ccc(-c5ccn[nH]5)cn4)ccc3c2)CC1 [Example 7, 2-Hydroxy-1-(4-{6-[5-(2H-pyrazol-3-yl)-pyridin-2-yloxy]-naphthalen-2-ylmethyl}-piperazin-1-yl)-ethanone]	0.4	120
OC1CN(Cc2ccc3cc(Oc4ncc(-c5ccn[nH]5)cn4)ccc3c2)C1 [Example 49, 1-{6-[5-(2H-Pyrazol-3-yl)-pyrimidin-2-yloxy]-naphthalen-2-ylmethyl}-azetidin-3-ol]	2.2	210
CC(=O)NC1CN(Cc2ccc3cc(Oc4ccc(-c5ccn[nH]5)cn4)ccc3c2)C1 [Example 3, N-(1-{6-[5-(2H-Pyrazol-3-yl)-pyridin-2-yloxy]-naphthalen-2-ylmethyl}-azetidin-3-yl)-acetamide]	0.5	200
O=C(CO)NC1CCN(Cc2ccc3cc(Oc4ccc(-c5ccn[nH]5)cn4)ccc3c2)CC1 [Example 9, 2-Hydroxy-N-(1-{6-[5-(2H-pyrazol-3-yl)-pyridin-2-yloxy]-naphthalen-2-ylmethyl}-piperidin-4-yl)-acetamide]	0.5	170
CN(CCO)Cc1ccc2cc(Oc3ccc(-c4ccn[nH]4)cn3)ccc2c1 [Example 16, 2-(Methyl-{6-[5-(2H-pyrazol-3-yl)-pyridin-2-yloxy]-naphthalen-2-ylmethyl}-amino)-ethanol]	0.7	160
COCC(=O)N1CCN(Cc2cn3cc(Oc4ccc(-c5ccn[nH]5)cc4)ccc3n2)CC1 [Example 89, 2-Methoxy-1-(4-{6-[4-(2H-pyrazol-3-yl)-phenoxy]-imidazo[1,2-a]pyridin-2-ylmethyl}-piperazin-1-yl)-ethanone]	0.66	470
O=C(N1CCN(Cc2ccc3cc(Oc4ccc(-c5ccn[nH]5)cn4)ccc3n2)CC1)C1(CO)CC1 [Example 138, (1-Hydroxymethyl-cyclopropyl)-(4-{6-[5-(2H-pyrazol-3-yl)-pyridin-2-yloxy]-quinolin-2-ylmethyl}-piperazin-1-yl)-methanone]	1.7	340

Compound	IC50 [1] [nM]	IC50 [2] [nM]
C[C@@H](O)C(=O)N1CC2CCC(C1)N2Cc1ccc2cc(Oc3ccc(-c4ccn[nH]4)cn3)ccc2n1 [Example 59, (R)-2-Hydroxy-1-(8-{6-[5-(2H-pyrazol-3-yl)-pyridin-2-yloxy]-quinolin-2-ylmethyl}-3,8-diaza-bicyclo[3.2.1]oct-3-yl)-propan-1-one]	0.54	110
CC(C)(O)C(=O)N1CCN(Cc2ccc3cc(Oc4ncc(-c5ccn[nH]5)cn4)ccc3c2)CC1 [Example 39, 2-Hydroxy-2-methyl-1-(4-{6-[5-(2H-pyrazol-3-yl)-pyrimidin-2-yloxy]-naphthalen-2-ylmethyl}-piperazin-1-yl)-propan-1-one]	2.2	320
OC[C@@H]1CCN(Cc2ccc3cc(Oc4ccc(-c5ccn[nH]5)cn4)ccc3c2)C1 [Example 22, ((R)-1-{6-[5-(2H-Pyrazol-3-yl)-pyridin-2-yloxy]-naphthalen-2-ylmethyl}-pyrrolidin-3-yl)-methanol]	0.64	130
CN(C(=O)CO)[C@@H]1CCN(Cc2coc3cc(Oc4ccc(-c5ccn[nH]5)cn4)ccc23)C1 [Example 113, 2-Hydroxy-N-methyl-N-((R)-1-{6-[5-(2H-pyrazol-3-yl)-pyridin-2-yloxy]-benzofuran-3-ylmethyl}-pyrrolidin-3-yl)-acetamide]	0.42	160
CC(=O)N1CCN(Cc2ccc3cc(Oc4ncc(-c5ccn[nH]5)cn4)ccc3c2)CC1 [Example 25, 1-(4-{6-[5-(2H-Pyrazol-3-yl)-pyrimidin-2-yloxy]-naphthalen-2-ylmethyl}-piperazin-1-yl)-ethanone]	1.7	520
C[C@H](O)C(=O)N1CCN(Cc2cn3cc(Oc4ccc(-c5ccn[nH]5)cc4)ccc3n2)CC1 [Example 87, (S)-2-Hydroxy-1-(4-{6-[4-(2H-pyrazol-3-yl)-phenoxy]-imidazo[1,2-a]pyridin-2-ylmethyl}-piperazin-1-yl)-propan-1-one]	1	260
OC1CN(Cc2ccc3cc(Oc4ccc(-c5ccn[nH]5)cn4)ccc3n2)C1 [Example 42, 1-{6-[5-(2H-Pyrazol-3-yl)-pyridin-2-yloxy]-quinolin-2-ylmethyl}-azetidin-3-ol]	0.92	190
CC(=O)N1CCCN(Cc2coc3cc(Oc4ccc(-c5ccn[nH]5)cn4)ccc23)CC1 [Example 97, 1-(4-{6-[5-(2H-Pyrazol-3-yl)-pyridin-2-yloxy]-benzofuran-3-ylmethyl}-[1,4]diazepan-1-yl)-ethanone]	0.58	210
CC(=O)N[C@@H]1CCN(Cc2ccc3cc(Oc4ccc(-c5ccn[nH]5)cn4)ccc3c2)C1 [Example 12, N-((R)-1-{6-[5-(2H-Pyrazol-3-yl)-pyridin-2-yloxy]-naphthalen-2-ylmethyl}-pyrrolidin-3-yl)-acetamide]	0.34	120
O=C1CCCN1C1CCN(C[C@H]2Cc3ccc(Oc4ccc(-c5ccn[nH]5)cn4)cc3O2)CC1 [Example 63, 1-(1-{(R)-6-[5-(2H-Pyrazol-3-yl)-pyridin-2-yloxy]-2,3-dihydro-benzofuran-2-ylmethyl}-piperidin-4-yl)-pyrrolidin-2-one]	0.66	190
N#CC1(C(=O)N2CCN(Cc3ccc4cc(Oc5ccc(-c6ccn[nH]6)cn5)ccc4n3)CC2)CC1 [Example 116, 1-(4-{6-[5-(2H-Pyrazol-3-yl)-pyridin-2-yloxy]-quinolin-2-ylmethyl}-piperazine-1-carbonyl)-cyclopropanecarbonitrile]	0.87	240
O[C@@H]1CCN(Cc2ccc3cc(Oc4ccc(-c5ccn[nH]5)cn4)ccc3c2)C1 [Example 6, (R)-1-{6-[5-(2H-Pyrazol-3-yl)-pyridin-2-yloxy]-naphthalen-2-ylmethyl}-pyrrolidin-3-ol]	0.57	130
CC[C@H](CC#N)NCc1ccc2cc(Oc3ccc(-c4ccn[nH]4)cn3)ccc2n1 [Example 44, (R)-3-({6-[5-(2H-Pyrazol-3-yl)-pyridin-2-yloxy]-quinolin-2-ylmethyl}-amino)-pentanenitrile]	2.7	870
CC(=O)N1CCC(CNCc2coc3cc(Oc4ccc(-c5ccn[nH]5)cn4)ccc23)CC1 [Example 107, 1-{4-[({6-[5-(2H-Pyrazol-3-yl)-pyridin-2-yloxy]-benzofuran-3-ylmethyl}-amino)-methyl]-piperidin-1-yl}-ethanone]	0.7	210
CC(=O)N1CCN(Cc2cn3cc(Oc4ccc(-c5ccn[nH]5)cc4)ccc3n2)CC1 [Example 95, 1-(4-{6-[4-(2H-Pyrazol-3-yl)-phenoxy]-imidazo[1,2-a]pyridin-2-ylmethyl}-piperazin-1-yl)-ethanone]	0.59	280
